Target: His6-TEV-PDGFRβ (557-1016) (Homo sapiens (Human), UniProt P09619)
Assay: PDGFRβ HTRF Assay
Type: biochemical
Conditions: read-out: PDGFR HTRF IC50
In short: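 HTRF KinEASE-TK readout (665/620 nm ratio) of TK-biotin substrate phosphorylation by His-tagged PDGFRβ kinase domain. Enzyme and inhibitor preincubated 30 min, then ATP/substrate added for 3 h at room temperature before 60 min EDTA quench/detection.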

Sequence of His6-TEV-PDGFRβ (557-1016) (P09619 557-1016): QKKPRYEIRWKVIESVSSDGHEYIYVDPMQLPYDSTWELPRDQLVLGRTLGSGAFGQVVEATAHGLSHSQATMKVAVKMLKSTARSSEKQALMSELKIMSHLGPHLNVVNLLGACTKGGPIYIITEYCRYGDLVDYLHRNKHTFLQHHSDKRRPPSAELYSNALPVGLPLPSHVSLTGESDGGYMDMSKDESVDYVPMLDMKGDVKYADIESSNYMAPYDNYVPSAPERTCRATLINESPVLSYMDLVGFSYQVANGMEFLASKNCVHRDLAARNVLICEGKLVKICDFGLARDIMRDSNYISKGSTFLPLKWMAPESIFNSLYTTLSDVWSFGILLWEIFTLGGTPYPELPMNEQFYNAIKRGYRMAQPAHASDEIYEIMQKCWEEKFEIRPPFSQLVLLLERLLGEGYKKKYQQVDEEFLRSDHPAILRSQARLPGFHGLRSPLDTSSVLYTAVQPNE

Compound | IC50
Cc1cnn(C)c1-c1cn2ncc(C(=O)Nc3cc(NC(=O)CN4CC(C)(C)C4)cnc3C)c2s1 [Example 389, 2-(1,4-dimethyl-1H-pyrazol-5-yl)-N-(5-(2-(3,3-dimethylazetidin-1-yl)acetamido)-2-methylpyridin-3-yl)pyrazolo[5,1-b]thiazole-7-carboxamide] | 0.6 nM
Cc1ncc(NC(=O)CN2CCC[C@@H]2C)cc1NC(=O)c1cnn2cc(-c3ccnc(N4CCOCC4)c3)sc12 [Example 352, (S)—N-(2-methyl-5-(2-(2-methylpyrrolidin-1-yl)acetamido)pyridin-3-yl)-2-(2-morpholinopyridin-4-yl)pyrazolo[5,1-b]thiazole-7-carboxamide] | 0.3 nM
COc1cccc(-c2cn3ncc(C(=O)Nc4cc(NC(=O)CN5C[C@H](C)O[C@@H](C)C5)cnc4C)c3s2)n1 (relative stereo) [Example 386, N-(5-(2-(trans-2,6-dimethylmorpholino)acetamido)-2-methylpyridin-3-yl)-2-(6-methoxypyridin-2-yl)pyrazolo[5,1-b]thiazole-7-carboxamide] | 0.4 nM
Cc1ncc(NS(=O)(=O)CCN2CC3CCC2CC3)cc1NC(=O)c1cnn2cc(-c3cnn(C)c3)sc12 [Example 358, N-(5-((2-(2-azabicyclo[2.2.2]octan-2-yl)ethyl)sulfonamido)-2-methylpyridin-3-yl)-2-(1-methyl-1H-pyrazol-4-yl)pyrazolo[5,1-b]thiazole-7-carboxamide] | 86.6 nM
Cc1ncc(NC(=O)C[C@H]2CCCN2C(C)C)cc1NC(=O)c1cnn2cc(-c3cnn4c3OCCC4)sc12 [Example 351, (R)-2-(6,7-dihydro-5H-pyrazolo[5,1-b][1,3]oxazin-3-yl)-N-(5-(2-(1-isopropylpyrrolidin-2-yl)acetamido)-2-methylpyridin-3-yl)pyrazolo[5,1-b]thiazole-7-carboxamide] | 0.3 nM
COc1cnccc1-c1cn2ncc(C(=O)Nc3cc(NC(=O)CN4CC(C)(C)C4)cnc3C)c2s1 [Example 399, N-(5-(2-(3,3-dimethylazetidin-1-yl)acetamido)-2-methylpyridin-3-yl)-2-(3-methoxypyridin-4-yl)pyrazolo[5,1-b]thiazole-7-carboxamide] | 0.2 nM
Cc1ncc(NC(=O)CN2CCC[C@@H]2C)cc1NC(=O)c1cnn2cc(-c3cnn(C)c3)sc12 [Example 27, (S)-2-(1-methyl-1H-pyrazol-4-yl)-N-(2-methyl-5-(2-(2-methyl-pyrrolidin-1-yl)acetamido)pyridin-3-yl)pyrazolo[5,1-b]thiazole-7-carboxamide] | 0.9 nM
COc1ncccc1-c1cn2ncc(C(=O)Nc3cc(NC(=O)CN4CC5(COC5)C4)cnc3C)c2s1 [Example 404, N-(5-(2-(2-oxa-6-azaspiro[3.3]heptan-6-yl)acetamido)-2-methylpyridin-3-yl)-2-(2-methoxypyridin-3-yl)pyrazolo[5,1-b]thiazole-7-carboxamide] | 0.3 nM
Cc1ncc(NC(=O)CN2CCC3(CC3)C2)cc1NC(=O)c1cnn2cc(-c3cnn(CCO)c3)sc12 [Example 32, N-(5-(2-(5-azaspiro[2.4]heptan-5-yl)acetamido)-2-methylpyridin-3-yl)-2-(1-(2-hydroxyethyl)-1H-pyrazol-4-yl)pyrazolo[5,1-b]thiazole-7-carboxamide] | 0.7 nM
Cc1ncc(NC(=O)CN2CC(C)C2)cc1NC(=O)c1cnn2cc(-c3cnn4c3OCCC4)sc12 [Example 407, 2-(6,7-dihydro-5H-pyrazolo[5,1-b][1,3]oxazin-3-yl)-N-(2-methyl-5-(2-(3-methylazetidin-1-yl)acetamido)pyridin-3-yl)pyrazolo[5,1-b]thiazole-7-carboxamide] | 0.3 nM
COCCn1cc(-c2cn3ncc(C(=O)Nc4cc(NC(=O)CN5CCCCCC5)cnc4C)c3s2)cn1 [Example 339, N-(5-(2-(azepan-1-yl)acetamido)-2-methylpyridin-3-yl)-2-(1-(2-methoxyethyl)-1H-pyrazol-4-yl)pyrazolo[5,1-b]thiazole-7-carboxamide] | 0.4 nM
COCCn1cc(-c2cn3ncc(C(=O)Nc4cc(NC(=O)CN5CCC(C)(C)C5)cnc4C)c3s2)cn1 [Example 336, N-(5-(2-(3,3-dimethylpyrrolidin-1-yl)acetamido)-2-methylpyridin-3-yl)-2-(1-(2-methoxyethyl)-1H-pyrazol-4-yl)pyrazolo[5,1-b]thiazole-7-carboxamide] | 0.4 nM
COC/C=C/c1cn2ncc(C(=O)Nc3cc(NC(=O)CN4C[C@H](C)O[C@@H](C)C4)cnc3C)c2s1 (relative stereo) [Example 367, N-(5-(2-(trans-2,6-dimethylmorpholino)acetamido)-2-methylpyridin-3-yl)-2-((E)-3-methoxyprop-1-en-1-yl)pyrazolo[5,1-b]thiazole-7-carboxamide] | 1.8 nM
Cc1ncc(NC(=O)CN2C[C@H](C)O[C@@H](C)C2)cc1NC(=O)c1cnn2cc(-c3cc[nH]c3)sc12 [Example 365, N-(5-(2-(2,6-trans-dimethylmorpholino)acetamido)-2-methylpyridin-3-yl)-2-(1H-pyrrol-3-yl)pyrazolo[5,1-b]thiazole-7-carboxamide] | 0.3 nM
COCCn1cc(-c2cn3ncc(C(=O)Nc4cc(NC(=O)CN5C6CCC5CC6)cnc4C)c3s2)cn1 [Example 340, N-(5-(2-(7-azabicyclo[2.2.1]heptan-7-yl)acetamido)-2-methylpyridin-3-yl)-2-(1-(2-methoxyethyl)-1H-pyrazol-4-yl)pyrazolo[5,1-b]thiazole-7-carboxamide] | 0.5 nM
Cc1ncc(NC(=O)CN2CCC3(CCC3)C2)cc1NC(=O)c1cnn2cc(-c3cnn(CCO)c3)sc12 [Example 30, N-(5-(2-(6-azaspiro[3.4]octan-6-yl)acetamido)-2-methylpyridin-3-yl)-2-(1-(2-hydroxyethyl)-1H-pyrazol-4-yl)pyrazolo[5,1-b]thiazole-7-carboxamide] | 0.5 nM
COc1ncccc1-c1cn2ncc(C(=O)Nc3cc(NC(=O)CN4CCC4)cnc3C)c2s1 [Example 397, N-(5-(2-(azetidin-1-yl)acetamido)-2-methylpyridin-3-yl)-2-(2-methoxypyridin-3-yl)pyrazolo[5,1-b]thiazole-7-carboxamide] | 0.8 nM
COCCn1cc(-c2cn3ncc(C(=O)Nc4cc(NC(=O)CN5CCCC5)cnc4C)c3s2)cn1 [Example 337, 2-(1-(2-methoxyethyl)-1H-pyrazol-4-yl)-N-(2-methyl-5-(2-(pyrrolidin-1-yl)acetamido)pyridin-3-yl)pyrazolo[5,1-b]thiazole-7-carboxamide] | 1.8 nM
Cc1ncc(NC(=O)CN2C[C@@H](CO)OC(C)(C)C2)cc1NC(=O)c1cnn2cc(-c3cnn(C)c3)sc12 [Example 377, (S)—N-(5-(2-(6-(hydroxymethyl)-2,2-dimethylmorpholino)acetamido)-2-methylpyridin-3-yl)-2-(1-methyl-1H-pyrazol-4-yl)pyrazolo[5,1-b]thiazole-7-carboxamide] | 0.8 nM
Cc1ncc(NC(=O)CN2CC(C)(C)C2)cc1NC(=O)c1cnn2cc(-c3cncnc3C)sc12 [Example 398, N-(5-(2-(3,3-dimethylazetidin-1-yl)acetamido)-2-methylpyridin-3-yl)-2-(4-methylpyrimidin-5-yl)pyrazolo[5,1-b]thiazole-7-carboxamide] | 6.8 nM

Reference: patent publication US20240109917A1 (ACTELION PHARMACEUTICALS LTD, priority 2020, published 2024)
